Results on 4 molecules are retold here after patent US10800714B2, “Low VOC and low odor aromatic oil” (Dow Global Technologies LLC, priority 2015, dated 2020).

Common to all, as to format: physicochemical
The nature of series [1]: NBPT mixture storage at −20° C. for 4 weeks (crystal formation, flowability). To be noted: solution free of crystal or flowable at −20° C. On the procedure:
Recipe: 20 wt % NBPT/80 wt % Solvent
(§1) Each NBPT mixture is stored at three temperatures, room temperature (20-25° C.), 55° C., and −20° C. for 4 weeks to evaluate storage stability at elevated, ambient, and sub-ambient conditions. After 4 weeks of storage, the samples are visually inspected for (1) color, which is an indication of degradation, and (2) crystal formation, which is an indicator of insufficient solvency to carry 20 wt % NBPT.
(§2) NBPT is considered compatible with a solvent if the mixture remained clear, crystal free, and flowable at −20° C. for four weeks, and has little color (colorless or pale yellow) after four weeks at 55° C.

The nature of series [2]: Solvent vapor pressure at 20° C. As to conditions: neat solvent. The method, then:
• (1) a vapor pressure of less than or equal to (≤) 0.01 millimeters of mercury (mmHg) at 20° C. as measured by ASTM E1719, • (2) a flash point equal to or greater than (≥) 200° F. (93° C.) as measured by ASTM D3278, • (3) a viscosity less than or equal to (≤) 200 centipoise (cP) at 25° C. as measured by ASTM D445, • (4) a hydroxyl number from 100 to 1,000 as measured by ASTM D4274, and • (5) a VOC content less of than or equal to (≤) 50 weight percent (wt %) as measured by ASTM D6886.
In one embodiment, the fertilizer stabilizer compositions of this invention have a low vapor pressure, typically less than or equal to (≤) 0.01 millimeters of mercury (mmHg), or ≤0.001 mmHg, or ≤0.0001 mmHg, at 20° C. as measured by ASTM E1719.
Only two glycol ethers are identified as compatible with NBPT: methyl CARBITOL™ (as described in WO 2014/028767 A1 and WO 2008/000196 A1, an alkyl glycol ether not of Formula 1, and a comparative sample) and DOWANOL™ EPh6 (a mixture of glycol ethers comprising at least two structures of Formula 1, and an inventive sample). […]

Series [3] in a line: Compatibility of NBPT with solvent (storage study overall). As to conditions: clear, crystal free, flowable at −20° C. for four weeks and little color after four weeks at 55° C.; 20 wt % NBPT. The method, then:
as §1, §2

`OCCOCCOc1ccccc1` [DOWANOL DiEPh]: the “Solvency to carry 20 wt % NBPT” value in series [1] was “not able to produce a NBPT mixture that provides sufficient solvency to carry 20 wt % NBPT”. Same read-out and setting: the same measure for `CC(O)COc1ccccc1` (stereo not drawn) [DOWANOL PPh]: “not able to produce a NBPT mixture that provides sufficient solvency to carry 20 wt % NBPT”. In the case of `OCCOc1ccccc1` [DOWANOL EPh], the “Solvency to carry 20 wt % NBPT” value in series [1] is on record as “not able to produce a NBPT mixture that provides sufficient solvency to carry 20 wt % NBPT”. For `COCCOCCO` [Methyl CARBITOL], the “Vapor pressure mmHg at 20° C.” value in series [2] was 0.23 mmHg; in series [2] (listed as methyl CARBITOL™), over 0.1 mmHg. Besides, in series [3], the “Compatibility with NBPT” value was “compatible”.
